{"source": "patent US12630517B2", "about": "“Process for preparing large size isoxazoline particles” (Intervet Inc., priority 2017, dated 2026)", "assay_type_in_all_cases": "physicochemical", "key": {"[1]": {"assay": "Particle size by wet method, Microtrac static light scattering", "details": "FIG. 13", "method": "FIG. 13—Particle size distribution of the material made from Example 4. […] The particle size measurement for this sample was conducted with a wet method using a Microtrac static light scattering system."}, "[2]": {"assay": "Volume weighted particle size distribution by laser diffraction (Sympatec Helos)", "details": "for x50/d50 particle size dimension at end of recycle loop: in-process slurry at 54° C., after the recycle loop, before final cooling", "excerpt": "As used herein, particle size data reported are volume weighted as measured by conventional particle techniques well known to those skilled in the art, such as static light scattering (also known as laser diffraction), image analysis or sieving. More discussion of particle size measurement is provided below.\nThe volume weighted particle size can be measured by sieving, microscopy or laser diffraction (Malvern or Sympatec) The volume weighted particle size measurement can be performed with a Malvern Mastersizer 2000 with the Hydro 2000G measuring cell, or with a Horiba LA-910 laser scattering particle size distribution analyzer. The volume weighted particle size can be measured by a Sympatec Helos instrument.\n(§1) The volume weighted particle size of the fluralaner crystals was measured by laser diffraction (Sympatec Helos) to determine the particle size distribution. The mechanical resiliency was also determined during a pressure titration experiment. […] In this case, this material is the product of the previous commercial process using an unseeded, distillative crystallization process from an ethyl acetate, toluene solvent system. Of note is the lower particle size and general wider distribution of sizes of the particles."}, "[3]": {"assay": "Pressure titration for mechanical resiliency (Sympatec HELOS), 1 to 3 bar dispersion pressure", "details": "for reduction in x50/d50 from the pressure titration from 1 bar to 3 bar: dried particles of the example (FIG. 10, FIG. 15)", "excerpt": "Mechanical resiliency is the resistance of crystals or particles to break into smaller crystals or particles when exposed to pressure or stress from other sources. Mechanical resiliency can be measured by a pressure titration using the Sympatec HELOS. This instrument can simultaneously measure the particle size distribution. In this experiment, pressure is applied to the crystals to disperse or separate them one from another. The change in the particle size distribution measurement of d50 is monitored as the pressure on the crystals is increased from 1 bar to 3 bars. Preferably, the isoxazoline compound particles of the subject invention will not decrease their particle size distribution measurement of d50 by more than 30-40% when the dispersion pressure is increased from 1 to 3 bar.\nas §1\nIn this experiment, the particle size distribution was monitored as the particles are exposed to increasing pressure from 1 bar to 3 bar. […] Moreover, the particle size distribution curve broadens and shifts towards smaller particle sizes. This is evidence that these particles are being broken under the increased pressure and is an indication that the particles were very thin."}, "[4]": {"assay": "Scanning electron microscopy of particles", "excerpt": "Scanning electron microscopy (SEM) is an analytical instrument that uses a focused beam of high-energy electrons to generate a variety of signals at the surface of solid specimens. The signals reveal information about the sample including external morphology (texture), chemical composition, and crystalline structure and orientation of materials making up the sample. FIG. 8 is a scanning electron microscopy image of fluralaner particles that were not produced the inventive process. Of note is that these crystals are rather thin. FIG. 9 is a scanning electron microscopy image of fluralaner particles that were produce by the inventive process. In contrast to the particles shown in FIG. 8, these particles are large (around 100 μm) and thick (around 10-20 μm)."}, "[5]": {"details": "FIG. 9, particles produced by the inventive process"}}}
{"smiles": "Cc1cc(C2=NOC(c3cc(Cl)cc(Cl)c3)(C(F)(F)F)C2)ccc1C(=O)NCC(=O)NCC(F)(F)F", "note": "(stereo not drawn) [Example 4]", "values": [{"measurement": "d10", "setting": "[1]", "result": 47.3, "unit": "μm"}, {"measurement": "d50", "setting": "[1]", "result": 103, "unit": "μm"}, {"measurement": "d90", "setting": "[1]", "result": 158.8, "unit": "μm"}, {"measurement": "x50/d50 particle size dimension at end of recycle loop", "setting": "[2]", "result": "approximately 40 μm"}]}
{"smiles": "Cc1cc(C2=NOC(c3cc(Cl)cc(Cl)c3)(C(F)(F)F)C2)ccc1C(=O)NCC(=O)NCC(F)(F)F", "note": "(stereo not drawn) [Example 5]", "values": [{"measurement": "reduction in x50/d50 from the pressure titration from 1 bar to 3 bar", "setting": "[3]", "result": "approximately 20%"}, {"measurement": "average d50 of resulting material", "setting": "[2]; FIG. 15, crystallised from 5:3 toluene:ethyl acetate", "result": 99, "unit": "μm"}, {"measurement": "x50/d50 particle size dimension at end of recycle loop", "setting": "[2]", "result": "approximately 50 μm"}]}
{"smiles": "Cc1cc(C2=NOC(c3cc(Cl)cc(Cl)c3)(C(F)(F)F)C2)ccc1C(=O)NCC(=O)NCC(F)(F)F", "note": "(stereo not drawn) [Example 1]", "values": [{"measurement": "x50/d50 particle size dimension at end of recycle loop", "setting": "[2]", "result": "approximately 40 μm"}]}
{"smiles": "Cc1cc(C2=NOC(c3cc(Cl)cc(Cl)c3)(C(F)(F)F)C2)ccc1C(=O)NCC(=O)NCC(F)(F)F", "note": "(stereo not drawn) [Example 3]", "values": [{"measurement": "reduction in x50/d50 from the pressure titration from 1 bar to 3 bar", "setting": "[3]", "result": "approximately 24%"}, {"measurement": "x50 of resulting material", "setting": "[2]; FIG. 10, dried particles", "result": 108}, {"measurement": "x50/d50 particle size dimension at end of recycle loop", "setting": "[2]", "result": "approximately 45 μm"}]}
{"smiles": "Cc1cc(C2=NOC(c3cc(Cl)cc(Cl)c3)(C(F)(F)F)C2)ccc1C(=O)NCC(=O)NCC(F)(F)F", "note": "(stereo not drawn) [fluralaner, 4-[5-(3,5-Dichlorophenyl)-5-trifluoromethyl-4,5-dihydroisoxazol-3-yl]-2-methyl-N-[(2,2,2-trifluoro-ethylcarbamoyl)-methyl]-benzamide]", "values": [{"measurement": "particle size (x50) at 2 bar dispersing pressure", "setting": "[3]; FIG. 5, crystals not produced by the inventive process, 2 bar", "result": 80, "unit": "μm"}, {"measurement": "particle size (d50) at 1 bar", "setting": "[3]; FIG. 6, crystals produced by the inventive process, 1 bar", "result": 100, "unit": "μm"}, {"measurement": "particle size (d50) at 3 bar", "setting": "[3]; FIG. 6, crystals produced by the inventive process, 3 bar", "result": 73, "unit": "μm"}, {"measurement": "loss of d50 in pressure titration", "setting": "[3]; FIG. 7, additional batch produced by the inventive process", "result": "around 35%"}, {"measurement": "d50 after pressure titration", "setting": "[3]; FIG. 7, additional batch produced by the inventive process, after pressure increase", "result": "around 67 μm"}, {"measurement": "original d50", "setting": "[3]; FIG. 7, additional batch produced by the inventive process, before pressure increase", "result": "around 103 μm"}, {"measurement": "d50 reduction in pressure titration test", "setting": "[3]; FIG. 10, crystals produced by the inventive process, % of the original value", "result": "around 25%"}, {"measurement": "particle thickness by SEM", "setting": "[4]; FIG. 8, particles not produced by the inventive process", "result": "rather thin"}, {"measurement": "particle size by SEM", "setting": "[4]; [5]", "result": "around 100 μm"}, {"measurement": "particle thickness by SEM", "setting": "[4]; [5]", "result": "10-20 μm"}]}
